From the NIST ThermoML archive (doi:10.1021/je9010097)
Numbers after ± are expanded uncertainties.

Experiment: excess molar enthalpy (molar enthalpy of mixing); xn = mol fraction of the nth substance listed
Settings: 308.15 K, 101 kPa, Liquid, Flow calorimetry

C1COCCN1 [tetrahydro-1,4-oxazine] + C1CCOCC1
Settings | excess molar enthalpy [kcal/mol]
x2 = 0.101 | 0.039 ± 0.00143
x2 = 0.199 | 0.0703 ± 0.00239
x2 = 0.3 | 0.0946 ± 0.00311
x2 = 0.401 | 0.109 ± 0.00335
x2 = 0.501 | 0.115 ± 0.00359
x2 = 0.6 | 0.11 ± 0.00335
x2 = 0.702 | 0.0963 ± 0.00311
x2 = 0.8 | 0.0731 ± 0.00239
x2 = 0.899 | 0.0411 ± 0.00143

C1COCCN1 [tetrahydro-1,4-oxazine] + C1COCCO1
Settings | excess molar enthalpy [kcal/mol]
x2 = 0.108 | 0.0296 ± 0.000956
x2 = 0.201 | 0.0507 ± 0.00167
x2 = 0.303 | 0.0681 ± 0.00215
x2 = 0.403 | 0.0772 ± 0.00239
x2 = 0.506 | 0.0791 ± 0.00239
x2 = 0.6 | 0.0753 ± 0.00239
x2 = 0.703 | 0.0645 ± 0.00215
x2 = 0.803 | 0.0495 ± 0.00167
x2 = 0.905 | 0.0272 ± 0.000956

C1COCCN1 [tetrahydro-1,4-oxazine] + C1CCCCC1
Settings | excess molar enthalpy [kcal/mol]
x2 = 0.1 | 0.146 ± 0.00502
x2 = 0.201 | 0.261 ± 0.00837
x2 = 0.3 | 0.354 ± 0.011
x2 = 0.401 | 0.418 ± 0.0129
x2 = 0.5 | 0.446 ± 0.0139
x2 = 0.6 | 0.436 ± 0.0134
x2 = 0.7 | 0.392 ± 0.0122
x2 = 0.801 | 0.312 ± 0.0098
x2 = 0.9 | 0.195 ± 0.00645
